This note sets out measurements from ChEMBL document CHEMBL5346906, “Discovery of novel tranylcypromine-based derivatives as LSD1 inhibitors for gastric cancer treatment” (Eur J Med Chem, 2023).

In experiment [1] the target is T1, Lysine-specific histone demethylase 1A (Homo sapiens, UniProt O60341). The experiment in a line: Inhibition of recombinant LSD1 (unknown origin) preincubated for 10 mins in presence of H3K4Me2 measured after 30 mins by measuring fluorescence intensity by fluorescence based microplate reader.
The next experiment has as its system MGC-803. The experiment in a line: Antiproliferative activity against human MGC-803 cells incubated for 48 hrs measured by MTT assay. The format is functional, cell-based. The settings on record: MGC-803, 48 h. (In general: Formazan colour is commonly taken as a measure of viable cells.)
The test system of the next experiment is HCT-116. The experiment in a line: Antiproliferative activity against human HCT-116 cells incubated for 48 hrs measured by MTT assay. The settings on record: HCT-116, 48 h. It is filed as functional, cell-based.
The test system of the next experiment is KYSE-450. As to the kind of experiment: Antiproliferative activity against human KYSE-450 cells incubated for 48 hrs measured by MTT assay. It is filed as functional, cell-based. The conditions noted are these: KYSE-450, 48 h.
The target of experiment [2] is T1, Lysine-specific histone demethylase 1A. As to the kind of experiment: Inhibition of LSD1 in human MGC-803 cells assessed as increase in methylation of H3K9 at 24 micromol/L. The format is cell-based. The conditions noted are these: dose 24.0 µmol/L.
For experiment [3] the target is unchanged. The experiment in a line: Inhibition of LSD1 in human MGC-803 cells assessed as increase in methylation of H3K4 at 24 micromol/L. The format is cell-based. The settings on record: dose 24.0 µmol/L.

Active and inactive are the calls of the source. The calls are words filed in the database; no cut-off is given here.

As usually defined, the IC50 is the point on the concentration scale where inhibition reaches its midpoint. Consider `O=C(c1cccc(CN[C@@H]2C[C@H]2c2ccc(F)c(F)c2)c1)N1CCC(O)CC1`, for which, in experiment [1], the IC50 came out at 141 nM.

Regarding `Cc1ccc(NC(=O)c2cccc(CN[C@@H]3C[C@H]3c3ccc(F)c(F)c3)c2)cc1`, in experiment [1], the IC50 was determined as 36.4 nM.

As to `CCN1CCN(c2ccc(NC(=O)c3cccc(CN[C@@H]4C[C@H]4c4ccc(F)c(F)c4)c3)cc2)CC1`, the 50% inhibitory concentration (IC50) was determined as 28 µM in the experiment with MGC-803, 28.1 µM with HCT-116, 24.8 µM in the experiment on KYSE-450 and 42.8 nM in experiment [1].

On to `NC(=O)C1CCN(C(=O)c2cccc(CN[C@@H]3C[C@H]3c3ccc(F)c(F)c3)c2)CC1`, for which the IC50 in the experiment with MGC-803 was above 128 µM; in the experiment with HCT-116 it was above 128 µM; with KYSE-450 it was above 128 µM; in experiment [1], 108 nM.

Turning to `CN1CCN(C(=O)c2cccc(CN[C@@H]3C[C@H]3c3ccc(F)c(F)c3)c2)CC1`, the IC50 in experiment [1] turned out to be 222 nM.

As to `O=C(O)c1cccc(CN[C@@H]2C[C@H]2c2ccc(F)c(F)c2)c1`, in experiment [1], the IC50 worked out at 517 nM.

For the molecule `O=C(O)c1ccc(CN2CCC(CN[C@@H]3C[C@H]3c3ccccc3)CC2)cc1` [GSK2879552], the IC50 in the experiment on MGC-803, in the experiment on HCT-116 and in the experiment on KYSE-450 was above 64 µM each time.

`c1ccc([C@@H]2C[C@H]2NC2CCNCC2)cc1`: the IC50 with MGC-803, with HCT-116 and in the experiment on KYSE-450 was above 64 µM throughout. The inhibition entry in experiment [2] and in experiment [3] was “Active” throughout.

As to `O=C(c1cccc(CN[C@@H]2C[C@H]2c2ccc(F)c(F)c2)c1)N1CCN(c2ccccc2)CC1`, in experiment [1], the IC50 is 56.3 nM.

Consider `O=C(NCC1CCNCC1)c1cccc(CN[C@@H]2C[C@H]2c2ccc(F)c(F)c2)c1`, for which the IC50 in experiment [1] worked out at 173 nM.

Turning to `O=C(O)c1cccc(NC(=O)c2cccc(CN[C@@H]3C[C@H]3c3ccc(F)c(F)c3)c2)c1`, the IC50 in experiment [1] amounted to 479 nM.

On to `CN(Cc1ccccc1)C(=O)c1cccc(CN[C@@H]2C[C@H]2c2ccc(F)c(F)c2)c1`, for which, in experiment [1], the IC50 amounted to 42.1 nM.

For the molecule `NC(=O)CNC(=O)c1cccc(CN[C@@H]2C[C@H]2c2ccc(F)c(F)c2)c1`, in experiment [1], the IC50 stood at 108 nM.

Consider `COC(=O)c1cccc(NC(=O)c2cccc(CN[C@@H]3C[C@H]3c3ccc(F)c(F)c3)c2)c1`, for which the half-maximal inhibitory concentration (IC50) with MGC-803 is 50.1 µM; in the experiment with HCT-116, 45.7 µM; with KYSE-450, 67.9 µM; in experiment [1], 32.1 nM.

Consider `COCCNC(=O)c1cccc(CN[C@@H]2C[C@H]2c2ccc(F)c(F)c2)c1`, for which, in experiment [1], the IC50 was 231 nM.

For `O=C(c1cccc(CN[C@@H]2C[C@H]2c2ccc(F)c(F)c2)c1)N1CC2CCCCC2C1` (stereo not given in full), the IC50 was found to be 51.2 µM in the experiment with MGC-803, 55.7 µM in the experiment with HCT-116, 68.9 µM in the experiment on KYSE-450 and 58 nM in experiment [1].

Take `CN1CCN(S(=O)(=O)c2cccc(NC(=O)c3cccc(CN[C@@H]4C[C@H]4c4ccc(F)c(F)c4)c3)c2)CC1`: the IC50 in experiment [1] was determined as 325 nM.

In the case of `O=C(Nc1ccc(N2CCOCC2)c(F)c1)c1cccc(CN[C@@H]2C[C@H]2c2ccc(F)c(F)c2)c1`, in experiment [1], the IC50 is 249 nM.

Regarding `O=C(NC1CC(F)(F)C1)c1cccc(CN[C@@H]2C[C@H]2c2ccc(F)c(F)c2)c1`, the IC50 is 54.9 µM in the experiment on MGC-803, 58.2 µM with HCT-116, 64.5 µM with KYSE-450 and 115 nM in experiment [1].

As for `CCCCNC(=O)c1cccc(CN[C@@H]2C[C@H]2c2ccc(F)c(F)c2)c1`, the IC50 in experiment [1] was determined as 203 nM.

Turning to `NCC1CCN(C(=O)c2cccc(CN[C@@H]3C[C@H]3c3ccc(F)c(F)c3)c2)CC1`, the IC50 with MGC-803 was above 128 µM; in the experiment with HCT-116, above 128 µM; in the experiment on KYSE-450, above 128 µM; in experiment [1] it was 181 nM.

For the molecule `NC1CCN(C(=O)c2cccc(CN[C@@H]3C[C@H]3c3ccc(F)c(F)c3)c2)CC1`, the IC50 in experiment [1] was 668 nM.

With `O=C(Nc1cccc(S(=O)(=O)N2CCOCC2)c1)c1cccc(CN[C@@H]2C[C@H]2c2ccc(F)c(F)c2)c1`, the IC50 with MGC-803 worked out at 29.7 µM; in the experiment with HCT-116 it was 36.1 µM; in the experiment with KYSE-450, 38.7 µM; in experiment [1], 32.6 nM.

Turning to `O=C(c1cccc(CN[C@@H]2C[C@H]2c2ccc(F)c(F)c2)c1)N1CCc2ccccc21`, the IC50 in the experiment on MGC-803 turned out to be 33.7 µM; in the experiment on HCT-116, 50.1 µM; with KYSE-450, 51.5 µM; in experiment [1] it was 26.1 nM.

`CN1CCN(c2ccc(NC(=O)c3cccc(CN[C@@H]4C[C@H]4c4ccc(F)c(F)c4)c3)cc2)CC1`: the IC50 in experiment [1] was determined as 249 nM.
